Here are results for 2 compounds from patent publication US20180133203A1, “METHODS OF TREATING LIVER DISEASE” (Gilead Sciences, Inc., priority 2016, published 2018).

The subject of experiment [1] is FFD mice. Nature of the experiment: Total liver cholesterol content in FFD mouse model of NASH. Type of experiment: in vivo, male C57BL/6 mice. Particulars: Formula (I) 0.15% admixture in diet, Formula (III) 10 mg/kg PO QD, months 7-10. As for the experimental part:
The following study was conducted to evaluate the efficacy of the combination of an ASK1 inhibitor and an FXR agonist in a mouse model of non-alcoholic steatohepatitis (NASH), relative to the efficacy of the individual agents alone in the model. NASH was induced in male C57BL/6 mice by chronic administration of a “fast food” diet (FFD) high in saturated fats, cholesterol and sugars for a total of 10 months, whereas lean control animals were maintained on a normal chow diet. A NASH phenotype was established in FFD mice compared to control mice by 7 months, and was characterized by obesity, hypercholesterolemia, and AST/ALT elevation; and by histological features of NASH such as hepatocellular macrovesicular steatosis and ballooning degeneration. […] Endpoint analyses included morphometric quantification of liver steatosis (% of steatotic area), liver cholesterol content, serum ALT/AST levels, serum bile acid levels, and nanostring evaluation of gene expression. […] After centrifugation, an aliquot of the organic upper layer, containing cholesterol and cholesterol esters, was analyzed. […] The peak area of the m/z 369 [M-H2O]+→161+ product ion of cholesterol was measured against the peak area of the cholesterol-D6 product ion of m/z 375 [M-H2O]+→167+. […]

For experiment [2], the system named is FFD mice. Nature of the experiment: Hepatic steatosis (% vacuolation area, H&E morphometry) in fast food diet (FFD) mouse model of NASH. Type of experiment: in vivo, male C57BL/6 mice. The note with it: Formula (I) 0.15% admixture in diet, Formula (III) 10 mg/kg PO QD, months 7-10. Here is the method: The following study was conducted to evaluate the efficacy of the combination of an ASK1 inhibitor and an FXR agonist in a mouse model of non-alcoholic steatohepatitis (NASH), relative to the efficacy of the individual agents alone in the model. NASH was induced in male C57BL/6 mice by chronic administration of a “fast food” diet (FFD) high in saturated fats, cholesterol and sugars for a total of 10 months, whereas lean control animals were maintained on a normal chow diet. A NASH phenotype was established in FFD mice compared to control mice by 7 months, and was characterized by obesity, hypercholesterolemia, and AST/ALT elevation; and by histological features of NASH such as hepatocellular macrovesicular steatosis and ballooning degeneration. […] Endpoint analyses included morphometric quantification of liver steatosis (% of steatotic area), liver cholesterol content, serum ALT/AST levels, serum bile acid levels, and nanostring evaluation of gene expression. […] Extent of steatosis was determined on H&E stained tissue sections using the Definiens Developer software package. […] The number and size of these areas were enumerated and the total steatotic area was expressed as a percentage of total liver tissue cross-sectional area. […]

As for `O=C(Nc1cccc(-c2nncn2C2CC2)c1)c1cc(-n2cnc(C3CC3)c2)ccn1` [Formula (I)], the “reduction of liver cholesterol content” value in the experiment on FFD mice [1] was 74%. In addition, in the experiment with FFD mice [2], the “reduction in steatosis (H&E stained liver sections)” value was determined as 39%.

As to `O=C(O)c1ccnc(N2CC(O)(c3ccc(OCc4c(-c5c(Cl)cccc5Cl)noc4C4CC4)cc3Cl)C2)c1` [Formula (III)], in the experiment with FFD mice [1], the “reduction of liver cholesterol content” value amounted to 36%. In the experiment with FFD mice [2], the “reduction in steatosis (H&E stained liver sections)” value worked out at 27%.
